Assays:
HDAC1 enzyme = target: T1, HDAC1 enzyme (Homo sapiens, UniProt Q13547); test: HDAC1 enzyme inhibitory assay (HDAC-Glo I/II Assay kit); format: biochemical; details: 1 μM test compound; for inhibition at 1 µM: read-out: HDAC1 inhibitory rate (%) (1 μM)
T1 construct: prepared by transducing full length HDAC1 and HDAC6 genes into Sf-9 insect cells; GST; purchased SignalChem; host or cells: Sf-9 insect cells
Method: HDAC1 enzyme and HDAC6 enzyme each prepared by transducing full length HDAC1 and HDAC6 genes into Sf-9 insect cells and purifying by GST affinity column were purchased from SignalChem. Using these enzymes, HDAC1 and/or HDAC6 enzyme inhibitory activities of the compound of the present invention were evaluated. Enzymes were used after preserved at −70° C. HDAC1 or HDAC6 enzyme inhibitory activity of the compound of the present invention was measured using HDAC-Glo™ I/II Assay kit (Promega) according to the following experimental method. The test compound diluted with assay buffer (24 mM Tris-HCl (pH 7.5), 1 mM MgCl2, 0.35 mM KCl, 135 mM NaCl, 0.6 mM Glutathione, 0.01% Tween-20) was added to a 384-well plate by each 2 μL. Then, HDAC1 or HDAC6 enzyme solution diluted with assay buffer was added thereto by each 4 μL, and the plate was incubated at room temperature for 60 min. After incubated, HDAC substrate-Developer solution prepared according to Promega protocol attached to the assay kit was added to the 384-well plate by each 2 μL, and the enzyme reaction was started. After reacting at room temperature for 20 min, luminescence level was measured using plate reader Envision (PerkinElmer). The inhibitory activity of each compound was calculated as a relative activity value when luminescence level in wells without enzyme is considered as 100% inhibition.

HDAC6 enzyme = target: T2, HDAC6 enzyme (Homo sapiens, UniProt Q9UBN7); test: HDAC6 enzyme inhibitory assay (HDAC-Glo I/II Assay kit); format: biochemical; details: 1 μM test compound; for inhibition at 1 µM: read-out: HDAC6 inhibitory rate (%) (1 μM)
T2 construct: prepared by transducing full length HDAC1 and HDAC6 genes into Sf-9 insect cells; GST; purchased SignalChem; host or cells: Sf-9 insect cells
T2 sequence (Q9UBN7 1-1215): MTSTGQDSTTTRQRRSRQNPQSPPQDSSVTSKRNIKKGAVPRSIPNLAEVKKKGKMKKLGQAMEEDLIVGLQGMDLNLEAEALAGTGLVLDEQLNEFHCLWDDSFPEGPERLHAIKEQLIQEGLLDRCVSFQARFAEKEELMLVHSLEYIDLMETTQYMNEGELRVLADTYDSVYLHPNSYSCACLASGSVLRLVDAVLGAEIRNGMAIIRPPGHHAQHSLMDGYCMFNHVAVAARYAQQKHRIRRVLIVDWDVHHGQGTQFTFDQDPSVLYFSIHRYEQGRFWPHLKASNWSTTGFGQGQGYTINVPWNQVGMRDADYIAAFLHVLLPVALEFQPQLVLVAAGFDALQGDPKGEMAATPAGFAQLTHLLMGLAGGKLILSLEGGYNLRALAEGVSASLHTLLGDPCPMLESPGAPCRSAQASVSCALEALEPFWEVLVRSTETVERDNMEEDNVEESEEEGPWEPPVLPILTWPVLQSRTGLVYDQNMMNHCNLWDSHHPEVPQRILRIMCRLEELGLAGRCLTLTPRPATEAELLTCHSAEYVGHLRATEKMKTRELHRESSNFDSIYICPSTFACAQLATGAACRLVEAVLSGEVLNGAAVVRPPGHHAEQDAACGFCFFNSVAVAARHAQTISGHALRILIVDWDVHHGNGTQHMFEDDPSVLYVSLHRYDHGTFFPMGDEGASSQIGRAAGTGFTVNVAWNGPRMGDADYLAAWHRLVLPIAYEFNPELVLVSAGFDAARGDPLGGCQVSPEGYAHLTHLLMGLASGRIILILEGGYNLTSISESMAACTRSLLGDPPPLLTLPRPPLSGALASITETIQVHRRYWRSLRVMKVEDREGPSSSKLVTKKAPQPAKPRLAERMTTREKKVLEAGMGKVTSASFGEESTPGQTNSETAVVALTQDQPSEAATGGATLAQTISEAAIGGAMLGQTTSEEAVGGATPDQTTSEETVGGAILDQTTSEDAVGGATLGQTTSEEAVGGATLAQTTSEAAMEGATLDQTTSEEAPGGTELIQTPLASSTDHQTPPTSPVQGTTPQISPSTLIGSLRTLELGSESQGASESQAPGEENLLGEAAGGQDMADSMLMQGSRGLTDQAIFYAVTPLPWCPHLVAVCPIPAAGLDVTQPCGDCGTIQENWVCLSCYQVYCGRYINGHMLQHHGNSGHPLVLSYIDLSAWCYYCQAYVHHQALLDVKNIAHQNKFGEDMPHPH
Summary of the method: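 Luminescent HDAC-Glo I/II read-out after 20 min room-temperature reaction with substrate-developer, following a 60 min room-temperature enzyme–compound preincubation. Enzymes: full-length HDAC1 or HDAC6 from Sf-9 cells, GST-purified; buffer pH 7.5 Tris with NaCl, glutathione, 0.01% Tween-20. No-enzyme wells defined 100% inhibition.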

T1 sequence (Q13547 whole entry): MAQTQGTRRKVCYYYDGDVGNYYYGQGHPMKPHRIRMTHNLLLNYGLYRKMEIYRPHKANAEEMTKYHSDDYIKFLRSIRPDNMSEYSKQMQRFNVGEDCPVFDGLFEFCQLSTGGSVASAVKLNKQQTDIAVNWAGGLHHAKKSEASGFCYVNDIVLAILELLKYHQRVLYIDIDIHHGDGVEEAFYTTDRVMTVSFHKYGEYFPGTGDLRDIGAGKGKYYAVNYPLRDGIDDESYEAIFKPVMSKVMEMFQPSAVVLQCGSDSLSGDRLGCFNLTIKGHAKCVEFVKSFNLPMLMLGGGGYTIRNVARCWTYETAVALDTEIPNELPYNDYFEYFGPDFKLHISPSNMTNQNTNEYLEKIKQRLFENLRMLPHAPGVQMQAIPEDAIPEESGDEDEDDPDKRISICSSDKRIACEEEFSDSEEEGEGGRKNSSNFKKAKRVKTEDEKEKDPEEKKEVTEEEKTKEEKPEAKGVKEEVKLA

O=C(NCC1COCCN1C(=O)C12CC3CC(CC(C3)C1)C2)c1ccc(-c2noc(C(F)(F)F)n2)cc1 (stereo in doubt) [Example 97, N-(((3S)-4-(adamantan-1-ylcarbonyl)morpholin-3-yl)methyl)-4-(5-(trifluoromethyl)-1,2,4-oxadiazol-3-yl)benzamide]
inhibition at 1 µM (HDAC1 enzyme): 16% | inhibition at 1 µM (HDAC6 enzyme): 96%

CN(C(=O)N1CCOCC1CNC(=O)c1ccc(-c2noc(C(F)(F)F)n2)cc1)c1ccccc1 (stereo in doubt) [Example 98, (3S)-N-methyl-N-phenyl-3-(((4-(5-(trifluoromethyl)-1,2,4-oxadiazol-3-yl)benzoyl)amino)methyl)morpholine-4-carboxamide]
inhibition at 1 µM (HDAC1 enzyme): 15% | inhibition at 1 µM (HDAC6 enzyme): 98%

O=C(NCC1COCCN1C(=O)N1CCOCC1)c1ccc(-c2noc(C(F)(F)F)n2)cc1 (stereo in doubt) [Example 99, N-(((3S)-4-(morpholin-4-ylcarbonyl)morpholin-3-yl)methyl)-4-(5-(trifluoromethyl)-1,2,4-oxadiazol-3-yl)benzamide]
inhibition at 1 µM (HDAC1 enzyme): 9% | inhibition at 1 µM (HDAC6 enzyme): 99%

O=C(NCC1COCCN1C(=O)N1CCCC1)c1ccc(-c2noc(C(F)(F)F)n2)cc1 (stereo in doubt) [Example 100, N-(((3S)-4-(pyrrolidin-1-ylcarbonyl)morpholin-3-yl)methyl)-4-(5-(trifluoromethyl)-1,2,4-oxadiazol-3-yl)benzamide]
inhibition at 1 µM (HDAC1 enzyme): 6% | inhibition at 1 µM (HDAC6 enzyme): 97%

CC(C)(C(=O)N1CCOCC1CNC(=O)c1ccc(-c2noc(C(F)(F)F)n2)cc1)n1cccn1 (stereo in doubt) [Example 101, N-(((3S)-4-(2-methyl-2-(1H-pyrazol-1-yl)propanoyl)morpholin-3-yl)methyl)-4-(5-(trifluoromethyl)-1,2,4-oxadiazol-3-yl)benzamide]
inhibition at 1 µM (HDAC1 enzyme): 17% | inhibition at 1 µM (HDAC6 enzyme): 99%

CCc1noc(C)c1C(=O)N1CCOCC1CNC(=O)c1ccc(-c2noc(C(F)(F)F)n2)cc1 (stereo in doubt) [Example 102, N-(((3S)-4-((3-ethyl-5-methyl-1,2-oxazol-4-yl)carbonyl)morpholin-3-yl)methyl)-4-(5-(trifluoromethyl)-1,2,4-oxadiazol-3-yl)benzamide]
inhibition at 1 µM (HDAC1 enzyme): 50% | inhibition at 1 µM (HDAC6 enzyme): 99%

O=C(NCC1COCCN1C(=O)C1(c2ccccc2)COC1)c1ccc(-c2noc(C(F)(F)F)n2)cc1 (stereo in doubt) [Example 103, N-(((3S)-4-((3-phenyloxetan-3-yl)carbonyl)morpholin-3-yl)methyl)-4-(5-(trifluoromethyl)-1,2,4-oxadiazol-3-yl)benzamide]
inhibition at 1 µM (HDAC1 enzyme): 35% | inhibition at 1 µM (HDAC6 enzyme): 98%

O=C(NCC1COCCN1C(=O)C1CCNC1=O)c1ccc(-c2noc(C(F)(F)F)n2)cc1 (stereo in doubt) [Example 104, N-(((3S)-4-((2-oxopyrrolidin-3-yl)carbonyl)morpholin-3-yl)methyl)-4-(5-(trifluoromethyl)-1,2,4-oxadiazol-3-yl)benzamide]
inhibition at 1 µM (HDAC1 enzyme): 9% | inhibition at 1 µM (HDAC6 enzyme): 57%

O=C(NCC1COCCN1C(=O)C1CCNC1=O)c1ccc(-c2noc(C(F)(F)F)n2)cc1 (stereo in doubt) [Example 105, N-(((3S)-4-((2-oxopyrrolidin-3-yl)carbonyl)morpholin-3-yl)methyl)-4-(5-(trifluoromethyl)-1,2,4-oxadiazol-3-yl)benzamide]
HDAC1 inhibitory rate (%) (1 μM) (HDAC1 enzyme): 8% | HDAC6 inhibitory rate (%) (1 μM) (HDAC6 enzyme; 1 µM): 76%

CCn1nccc1C(=O)N1CCOCC1CNC(=O)c1ccc(-c2noc(C(F)(F)F)n2)cc1 (stereo in doubt) [Example 106, N-(((3S)-4-((1-ethyl-1H-pyrazol-5-yl)carbonyl)morpholin-3-yl)methyl)-4-(5-(trifluoromethyl)-1,2,4-oxadiazol-3-yl)benzamide]
inhibition at 1 µM (HDAC1 enzyme): 51% | inhibition at 1 µM (HDAC6 enzyme): 98%

O=C(NCC1COCCN1C(=O)c1ccccc1)c1ccc(-c2noc(C(F)(F)F)n2)cc1 (stereo in doubt) [Example 111, N-(((3R)-4-benzoylmorpholin-3-yl)methyl)-4-(5-(trifluoromethyl)-1,2,4-oxadiazol-3-yl)benzamide]
inhibition at 1 µM (HDAC1 enzyme): 21% | inhibition at 1 µM (HDAC6 enzyme): 101%

O=C(NCC1COCCN1C(=O)c1cc(Cl)cc(Cl)c1)c1ccc(-c2noc(C(F)(F)F)n2)cc1 (stereo in doubt) [Example 112, N-(((3R)-4-(3,5-dichlorobenzoyl)morpholin-3-yl)methyl)-4-(5-(trifluoromethyl)-1,2,4-oxadiazol-3-yl)benzamide]
inhibition at 1 µM (HDAC1 enzyme): 16% | inhibition at 1 µM (HDAC6 enzyme): 97%

O=C(NCC1COCCN1C(=O)c1cccc(F)c1)c1ccc(-c2noc(C(F)(F)F)n2)cc1 (stereo in doubt) [Example 113, N-(((3R)-4-(3-fluorobenzoyl)morpholin-3-yl)methyl)-4-(5-(trifluoromethyl)-1,2,4-oxadiazol-3-yl)benzamide]
HDAC1 inhibitory rate (%) (1 μM) (HDAC1 enzyme): 17% | inhibition at 1 µM (HDAC6 enzyme): 97%

O=C(NCC1COCCN1C(=O)c1ccccc1N1CCOCC1)c1ccc(-c2noc(C(F)(F)F)n2)cc1 (stereo in doubt) [Example 118, N-(((3R)-4-(2-(morpholin-4-yl)benzoyl)morpholin-3-yl)methyl)-4-(5-(trifluoromethyl)-1,2,4-oxadiazol-3-yl)benzamide]
inhibition at 1 µM (HDAC1 enzyme): 17% | inhibition at 1 µM (HDAC6 enzyme): 97%

O=C(NCC1COCCN1C(=O)c1cc(F)c(F)c(F)c1)c1ccc(-c2noc(C(F)(F)F)n2)cc1 (stereo in doubt) [Example 119, N-(((3R)-4-(3,4,5-trifluorobenzoyl)morpholin-3-yl)methyl)-4-(5-(trifluoromethyl)-1,2,4-oxadiazol-3-yl)benzamide]
inhibition at 1 µM (HDAC1 enzyme): 11% | inhibition at 1 µM (HDAC6 enzyme): 97%

O=C(NCC1COCCN1C(=O)c1ccccc1)c1ccc(-c2noc(C(F)(F)F)n2)cc1 (stereo not shown) [Example 1, N-((4-benzoylmorpholin-3-yl)methyl)-4-(5-(trifluoromethyl)-1,2,4-oxadiazol-3-yl)benzamide]
inhibition at 1 µM (HDAC1 enzyme): 22% | inhibition at 1 µM (HDAC6 enzyme): 98%

O=C(NCC1COCCN1C(=O)c1ccccc1F)c1ccc(-c2noc(C(F)(F)F)n2)cc1 (stereo not shown) [Example 3]
inhibition at 1 µM (HDAC1 enzyme): 19% | inhibition at 1 µM (HDAC6 enzyme): 99%

O=C(NCC1COCCN1C(=O)c1cccc(F)c1)c1ccc(-c2noc(C(F)(F)F)n2)cc1 (stereo not shown) [Example 4, N-((4-(3-fluorobenzoyl)morpholin-3-yl)methyl)-4-(5-(trifluoromethyl)-1,2,4-oxadiazol-3-yl)benzamide]
inhibition at 1 µM (HDAC1 enzyme): 18% | inhibition at 1 µM (HDAC6 enzyme): 100%

O=C(NCC1COCCN1C(=O)c1ccc(F)cc1)c1ccc(-c2noc(C(F)(F)F)n2)cc1 (stereo not shown) [Example 5, N-((4-(4-fluorobenzoyl)morpholin-3-yl)methyl)-4-(5-(trifluoromethyl)-1,2,4-oxadiazol-3-yl)benzamide]
inhibition at 1 µM (HDAC1 enzyme): 21% | inhibition at 1 µM (HDAC6 enzyme): 99%

O=C(NCC1COCCN1C(=O)c1ccccc1Cl)c1ccc(-c2noc(C(F)(F)F)n2)cc1 (stereo not shown) [Example 6, N-((4-(2-chlorobenzoyl)morpholin-3-yl)methyl)-4-(5-(trifluoromethyl)-1,2,4-oxadiazol-3-yl)benzamide]
inhibition at 1 µM (HDAC1 enzyme): 22% | inhibition at 1 µM (HDAC6 enzyme): 111%
